Measurements reported in PubChem BioAssay AID1963958 (Molecular Pharmacology Branch, DTP, NCI, 2024).

Test system: MDA-MB-231 multicell spheroids, viability
Test: Anticancer human tumor MDA-MB-231 cell line growth inhibition [PI3K];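 further: spheroids exposed to agents for seven days before reading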;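 on viability, T/C: percent of vehicle control luminescence with DMSO treated spheroids as 100%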
Details: for IC50: curve of first compound; for viability, T/C: stronger effect = lower value
How it was run: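 Tumor cells grown as multi-cell spheroids with HUVEC endothelial cells and MSC fibroblast-like stroma were treated with targeted agents combined with inavolisib, alpelisib, duvelisib or copanlisib. Doses fell in half-log steps from near clinical Cmax, else from 10 microM. Viability was measured.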

[1] = second compound 0.00316 µM, first compound 0.0316 µM
[2] = second compound 0.00316 µM, first compound 0.1 µM
[3] = second compound 0.00316 µM, first compound 0.316 µM
[4] = second compound 0.00316 µM, first compound 1 µM
[5] = second compound 0.00316 µM, first compound 3.16 µM
[6] = second compound 0.00316 µM, first compound 10 µM
[7] = second compound 0.01 µM, first compound 0.0316 µM
[8] = second compound 0.01 µM, first compound 0.1 µM
[9] = second compound 0.01 µM, first compound 0.316 µM
[10] = second compound 0.01 µM, first compound 1 µM
[11] = second compound 0.01 µM, first compound 3.16 µM
[12] = second compound 0.01 µM, first compound 10 µM
[13] = second compound 0.0316 µM, first compound 0.0316 µM
[14] = second compound 0.0316 µM, first compound 0.1 µM
[15] = second compound 0.0316 µM, first compound 0.316 µM
[16] = second compound 0.0316 µM, first compound 1 µM
[17] = second compound 0.0316 µM, first compound 3.16 µM
[18] = second compound 0.0316 µM, first compound 10 µM
[19] = second compound 0.1 µM, first compound 0.0316 µM
[20] = second compound 0.1 µM, first compound 0.1 µM
[21] = second compound 0.1 µM, first compound 0.316 µM
[22] = second compound 0.1 µM, first compound 1 µM
[23] = second compound 0.1 µM, first compound 3.16 µM
[24] = second compound 0.1 µM, first compound 10 µM
[25] = second compound 0.316 µM, first compound 0.0316 µM
[26] = second compound 0.316 µM, first compound 0.1 µM
[27] = second compound 0.316 µM, first compound 0.316 µM
[28] = second compound 0.316 µM, first compound 1 µM
[29] = second compound 0.316 µM, first compound 3.16 µM
[30] = second compound 0.316 µM, first compound 10 µM
[31] = second compound 1 µM, first compound 0.0316 µM
[32] = second compound 1 µM, first compound 0.1 µM
[33] = second compound 1 µM, first compound 0.316 µM
[34] = second compound 1 µM, first compound 1 µM
[35] = second compound 1 µM, first compound 3.16 µM
[36] = second compound 1 µM, first compound 10 µM

In the case of `CCCS(=O)(=O)Nc1ccc(F)c(C(=O)c2c[nH]c3ncc(-c4ccc(Cl)cc4)cc23)c1F` + COc1c(OCCCN2CCOCC2)ccc2c3n(c(=NC(=O)c4cnc(N)nc4)nc12)CCN3, the IC50 (second compound 0.00316 µM) is reported as 5140 nM, the IC50 (second compound 0.01 µM) is reported as 3480 nM and the IC50 (second compound 0.0316 µM) is reported as 1650 nM. The IC50 (second compound 0.1 µM) was < 31.6 nM, the IC50 (second compound 0.316 µM) was < 31.6 nM and the IC50 (second compound 1 µM) was < 31.6 nM. It also gave a viability, T/C [1] of 104%, a viability, T/C [2] of 103% and a viability, T/C [3] of 96.6%. The viability, T/C [4] was 76.5%, the viability, T/C [5] was 63.1% and the viability, T/C [6] was 34.8%. It also gave a viability, T/C [7] of 74.4%, a viability, T/C [8] of 91.3% and a viability, T/C [9] of 80.4%. The viability, T/C [10] was 67.6%, the viability, T/C [11] was 53% and the viability, T/C [12] was 32.3%. For the same compound, the viability, T/C [13] was 65.1%, the viability, T/C [14] was 64.7% and the viability, T/C [15] was 62.7%. The viability, T/C [16] was 57%, the viability, T/C [17] was 41% and the viability, T/C [18] was 25.3%. It also gave a viability, T/C [19] of 48%, a viability, T/C [20] of 49.8% and a viability, T/C [21] of 50%. The viability, T/C [22] was 44.5%, the viability, T/C [23] was 34% and the viability, T/C [24] was 20.9%. For the same compound, the viability, T/C [25] was 34.8%, the viability, T/C [26] was 35.1% and the viability, T/C [27] was 34.4%. It also gave a viability, T/C [28] of 30.7%, a viability, T/C [29] of 24.4% and a viability, T/C [30] of 15.7%. For the same compound, the viability, T/C [31] was 28.2%, the viability, T/C [32] was 28.3% and the viability, T/C [33] was 26.7%. It also gave a viability, T/C [34] of 24.9%, a viability, T/C [35] of 20.3% and a viability, T/C [36] of 13.2%.
In the case of `C[C@@H](NC(=O)c1ncnc(N)c1Cl)c1ncc(C(=O)Nc2cc(C(F)(F)F)c(Cl)cn2)s1` + COc1c(OCCCN2CCOCC2)ccc2c3n(c(=NC(=O)c4cnc(N)nc4)nc12)CCN3, the IC50 (second compound 0.00316 µM) is reported as > 10000 nM, the IC50 (second compound 0.01 µM) is reported as > 10000 nM and the IC50 (second compound 0.0316 µM) is reported as 1730 nM. The IC50 (second compound 0.1 µM) was 136 nM, the IC50 (second compound 0.316 µM) was < 31.6 nM and the IC50 (second compound 1 µM) was < 31.6 nM. The viability, T/C [1] was 123%, the viability, T/C [2] was 110% and the viability, T/C [3] was 100%. The viability, T/C [4] was 84.2%, the viability, T/C [5] was 71% and the viability, T/C [6] was 59.1%. It also gave a viability, T/C [7] of 108%, a viability, T/C [8] of 90.4% and a viability, T/C [9] of 81.6%. It also gave a viability, T/C [10] of 65.7%, a viability, T/C [11] of 59.8% and a viability, T/C [12] of 52.5%. It also gave a viability, T/C [13] of 75.9%, a viability, T/C [14] of 72.9% and a viability, T/C [15] of 61.5%. It also gave a viability, T/C [16] of 54.5%, a viability, T/C [17] of 45.9% and a viability, T/C [18] of 39.9%. It also gave a viability, T/C [19] of 61%, a viability, T/C [20] of 49.6% and a viability, T/C [21] of 45.4%. The viability, T/C [22] was 39.4%, the viability, T/C [23] was 34.2% and the viability, T/C [24] was 28.3%. The viability, T/C [25] was 38.8%, the viability, T/C [26] was 35.3% and the viability, T/C [27] was 29.4%. It also gave a viability, T/C [28] of 23.4%, a viability, T/C [29] of 20.3% and a viability, T/C [30] of 15.9%. For the same compound, the viability, T/C [31] was 33.4%, the viability, T/C [32] was 25.4% and the viability, T/C [33] was 23.2%. The viability, T/C [34] was 18.2%, the viability, T/C [35] was 15.3% and the viability, T/C [36] was 10.6%.
With `Cn1ncnc1[C@H]1c2n[nH]c(=O)c3cc(F)cc(c23)N[C@@H]1c1ccc(F)cc1` + COc1c(OCCCN2CCOCC2)ccc2c3n(c(=NC(=O)c4cnc(N)nc4)nc12)CCN3 the IC50 (second compound 0.00316 µM) was > 100 nM, the IC50 (second compound 0.01 µM) was > 100 nM and the IC50 (second compound 0.0316 µM) was 38.4 nM. For the same compound, the IC50 (second compound 0.1 µM) was < 0.316 nM, the IC50 (second compound 0.316 µM) was < 0.316 nM and the IC50 (second compound 1 µM) was < 0.316 nM. For the same compound, the viability, T/C (second compound 0.00316 µM, first compound 0.000316 µM) was 94%, the viability, T/C (second compound 0.00316 µM, first compound 0.001 µM) was 89.6% and the viability, T/C (second compound 0.00316 µM, first compound 0.00316 µM) was 91.4%. It also gave a viability, T/C (second compound 0.00316 µM, first compound 0.01 µM) of 78.5%, a viability, T/C [1] of 78.5% and a viability, T/C [2] of 72.9%. It also gave a viability, T/C (second compound 0.01 µM, first compound 0.000316 µM) of 76.4%, a viability, T/C (second compound 0.01 µM, first compound 0.001 µM) of 76.7% and a viability, T/C (second compound 0.01 µM, first compound 0.00316 µM) of 68.9%. It also gave a viability, T/C (second compound 0.01 µM, first compound 0.01 µM) of 64.8%, a viability, T/C [7] of 67.2% and a viability, T/C [8] of 60.3%. It also gave a viability, T/C (second compound 0.0316 µM, first compound 0.000316 µM) of 57.8%, a viability, T/C (second compound 0.0316 µM, first compound 0.001 µM) of 59.2% and a viability, T/C (second compound 0.0316 µM, first compound 0.00316 µM) of 53.8%. The viability, T/C (second compound 0.0316 µM, first compound 0.01 µM) was 53.5%, the viability, T/C [13] was 51.7% and the viability, T/C [14] was 46.1%. The viability, T/C (second compound 0.1 µM, first compound 0.000316 µM) was 46.4%, the viability, T/C (second compound 0.1 µM, first compound 0.001 µM) was 46.6% and the viability, T/C (second compound 0.1 µM, first compound 0.00316 µM) was 43%. For the same compound, the viability, T/C (second compound 0.1 µM, first compound 0.01 µM) was 43.7%, the viability, T/C [19] was 39.7% and the viability, T/C [20] was 37.5%. The viability, T/C (second compound 0.316 µM, first compound 0.000316 µM) was 31.8%, the viability, T/C (second compound 0.316 µM, first compound 0.001 µM) was 32.3% and the viability, T/C (second compound 0.316 µM, first compound 0.00316 µM) was 32.4%. It also gave a viability, T/C (second compound 0.316 µM, first compound 0.01 µM) of 29.6%, a viability, T/C [25] of 30.1% and a viability, T/C [26] of 25.7%. For the same compound, the viability, T/C (second compound 1 µM, first compound 0.000316 µM) was 24.4%, the viability, T/C (second compound 1 µM, first compound 0.001 µM) was 23.5% and the viability, T/C (second compound 1 µM, first compound 0.00316 µM) was 24.6%. For the same compound, the viability, T/C (second compound 1 µM, first compound 0.01 µM) was 23.5%, the viability, T/C [31] was 25.7% and the viability, T/C [32] was 22.4%.
